Consider 17 compounds from patent publication US4937235A, “3- or 4-substituted oxotremorine derivatives” (American Cyanamid Company, priority 1989, dated 1990).

Molecules are shown by their SMILES. Counter-ions that a name gives are not always drawn.

The subject of one assay is aged monkey. The note with it: aged monkeys; cited from earlier work.
Another assay has as its system SDAT patients. The note with it: cited from earlier work.
Assay [1] addresses muscarinic cholinergic receptor. Description: [3H] Quinuclidinyl Benzilate (3H-QNB) Binding Assay. Particulars: pH 7.4. Also noted: species or system rat.
The target is the same in assay [2]. In words: [3H]-Cis-methyldioxolane (3H-CD) Binding Assay (High Affinity). The note with it: rat cerebral cortex, 1.0 nM 3H-CD, 25° C., 120 minutes, pH 7.4.

`O=C1CCCN1CC#CCN1CCCC1` [oxotremorine]: the improvement in performance entry in the assay with aged monkey is given as “significant improvement in performance”.
As for `COC(=O)C1=CCCN(C)C1` [arecoline], the improvement in performance entry in the assay with aged monkey is given as “significant improvement in performance”. Moreover, in the assay with SDAT patients, the “improvement compared to physostigmine” value was “more-consistent improvement when compared to the anticholinesterase inhibitor physostigmine”.
As for `CO[C@H]1CCN(CC#CCN2CCCC2)C1=O` [(S)-3-Methoxy-1-[4-(1-pyrrolidinyl)-2-butynyl]-2-pyrrolidinone], the results for the IC50 in assay [1] and in assay [2] were 433 µM and 1170 nM, respectively.
The matching figures for `CO[C@@H]1CCN(CC#CCN2CCCC2)C1=O` [(R)-3-Methoxy-1-[4-(1-pyrrolidinyl)-2-butynyl]-2-pyrrolidinone]: 283 µM and 1970 nM.
The matching figures for `CO[C@@H]1CCN(CC#CCN2CCCCC2)C1=O` [(R)-3-Methoxy-1-[4-(1-piperidinyl)-2-butynyl]-2-pyrrolidinone]: 459 µM and 28100 nM.
Consider `CC(=O)O[C@@H]1CC(=O)N(CC#CCN2CCCCC2)C1` [(R)-4-(Acetyloxy)-1-[4-(1-piperidinyl)-2-butynyl]-2-pyrrolidinone], for which the results for the IC50 in assay [1] and in assay [2] were 181 µM and 8080 nM, respectively.
The matching figures for `O=C1CCCN1CC#CCN1CCC(O)C1` (racemic) [(Racemic)-1-[4-(3-Hydroxy-1-pyrrolidinyl)-2-butynyl]-2-pyrrolidinone]: 395 µM and 425 nM.
The matching figures for `O=C1[C@@H](S)CCN1CC#CCN1CCCCC1` [(S)-3-Mercapto-1-[4-(1-piperidinyl)-2-butynyl]-2-pyrrolidinone, monohydrochloride]: 2.5 µM and 955 nM.
Consider `O=C1[C@H](S)CCN1CC#CCN1CCCC1` [(R)-3-Mercapto-1-[4-(1-pyrrolidinyl)-2-butynyl]-2-pyrrolidinone], for which the 50% inhibitory concentration (IC50) (usually the concentration needed to halve the response being measured) in assay [1] stood at 1 µM; in assay [2], 7 nM.
The matching figures for `CC(=O)O[C@H]1CC(=O)N(CC#CCN2CCCC2)C1` [(S)-4-(Acetyloxy)-1-[4-(1-pyrrolidinyl)-2-butynyl]-2-pyrrolidinone]: 112 µM and 6110 nM.
`CO[C@H]1CCN(CC#CCN2CCCCC2)C1=O` [(S)-3-Methoxy-1-[4-(1-piperidinyl)-2-butynyl]-2-pyrrolidinone]: the IC50 in assay [1] amounted to 673 µM; in assay [2], 33100 nM.
The matching figures for `CN(C)CC#CCN1CC[C@@H](S)C1=O` [(R)-1-[4-(Dimethylamino)-2-butynyl]-3-mercapto-2-pyrrolidinone, monohydrochloride]: 31 µM and 76 nM.
For the compound `O=C1[C@@H](O)CCN1CC#CCN1CCCCC1` [(S)-3-Hydroxy-1-[4-(1-piperidinyl)-2-butynyl]-2-pyrrolidinone], the IC50 in assay [1] came out at 22 µM; in assay [2] it was 476 nM.
As to `CC(=O)O[C@H]1CCN(CC#CCN2CCCC2)C1=O` [(S)-3-(Acetyloxy)-1-[4-(1-pyrrolidinyl)-2-butynyl]-2-pyrrolidinone], the IC50 was determined as 122 µM in assay [1] and 152 nM in assay [2].
Take `CC(=O)O[C@@H]1CC(=O)N(CC#CCN2CCCC2)C1` [(R)-4-(Acetyloxy)-1-[4-(1-pyrrolidinyl)-2-butynyl]-2-pyrrolidinone]: the values for the IC50 in assay [1] and in assay [2] were 46 µM and 914 nM, respectively.
As to `O=C(O[C@@H]1CCN(CC#CCN2CCCCC2)C1=O)c1ccc([N+](=O)[O-])cc1` [(R)-3-[(4-Nitrobenzoyl)oxy]-1-[4-(1-piperidinyl)-2-butynyl]-2-pyrrolidinone], the IC50 turned out to be 43 µM in assay [1] (rat cerebral cortex, 0.25 nM 3H-QNB, 25° C., 120 minutes) and 937 nM in assay [2].
As for `CC(=O)N(C)CC#CCN1CCC(O)C1` (racemic) [(Racemic)-N-[4-(3-Hydroxy-1-pyrrolidinyl)-2-butynyl]-N-methyl acetamide], the IC50 in assay [1] amounted to 1190 µM; in assay [2], 2010 nM.
